Reference: patent publication US6609014B1, “Use of PDT to inhibit intimal hyperplasia” (QLT Inc., priority 1999, dated 2003)
Where “and” joins values, the source holds several entries; their conditions need not be identical. Equal entries are not always repeated.

System: intimal hyperplasia in the vein of AV fistulae between the carotid artery and the jugular vein
Assay: Three month efficacy study: PDT of bilateral AV fistulae, morphometric analysis
Type: in vivo, Domestic swine
Set-up: key to PDT-treated fistula thrombosed (T): T = thrombosed
Procedure: A porous balloon catheter was introduced into the lumen of veins to deliver either 2 mL of BPD-MA (diluted in 5% dextrose in water) or 5% dextrose in water (control), at a delivery pressure of 2 mm Hg. Two minutes later, the photosensitizer (or dextrose) was rinsed out with heparinized saline before light exposure.
The adventitia of the vein was exposed to the operating room (OR) lamp light for 40 minutes (a combination of incandescent bulbs and fluorescence tubes—approximately 1 J/cm^2).
Measurements and observations were made by morphometric analysis of cross-sections of fistulae stained with Verhoeff's elastic to assess the integrity of the vessel wall and also clearly demarcate the internal elastic lamina (IEL) for the measurement of IH. Areas within the lumen and those circumscribed by the internal elastic lamina (IEL) and the external elastic lamina (EEL) were measured directly using the Optimas (Optimas Corporation, Bothell, Wash., USA) program. The areas of the intima and the media were calculated by subtraction: intimal area equals the […], and medial area equals EEL area minus IEL area.
A three month study was conducted with bilateral end-to side AV fistulae between the carotid artery and the jugular vein created in 11 pigs. One fistula was treated with 0.15 mg/2 mL BPD-MA and 1 J/cm^2 OR lamp light delivered over 40 min; the control fistula received 5% Dextrose and light. Animals were sacrificed 3 months after PDT. The fistulae were surgically excised and processed for histology and morphometric analysis as described previously. Only 27% of the PDT treated and 45% of the control fistulae were patent by 3 months. Occlusion appeared to be due to both early thrombosis, possibly related to the surgical procedure or late thrombosis due to extensive IH and lumen narrowing.
There were three animals for which patent PDT-treated and control fistulae could be recovered. The percent of the lumen compromised by IH (% LCIH=[…]) was calculated for the first two complete blocks from the tip of the anastamosis for these samples.

[1] = 0.15 mg VERTEPORFIN/2 mL, 1 J/cm^2 OR lamp light over 40 min, three months, individual pigs
[2] = 0.15 mg VERTEPORFIN, three months, group mean
[3] = 0.15 mg VERTEPORFIN, three months, group mean (n=3)
[4] = 0.15 mg VERTEPORFIN, three months, individual pigs
[5] = 0.15 mg VERTEPORFIN, three months, individual pigs (FIG. 9: percent medial hyperplasia)
[6] = 0.15 mg/2 mL BPD-MA, three months

In the case of “benzoporphyrin derivative monoacid ring A [BPD-MA]”, the “Percent Lumen Compromised by Intimal Hyperplasia, PDT, Block #2” value [1] is reported as 2% and 32.3% and 41.7% and 13.7% and 46.4%, the “Percent Lumen Compromised by Intimal Hyperplasia, PDT, PDT (Block#1)” value [1] is reported as 3.1% and 30.2% and 17.3% and the “Medial Hyperplasia, PDT, Block#1, Mean” value [2] is reported as 21.3. The “Medial Hyperplasia, PDT, Block#2, Mean” value [2] was 14.9, the “Percent Lumen Compromised by Intimal Hyperplasia, PDT, Block #1, Mean” value [2] was 16.9% and the “Percent Lumen Compromised by Intimal Hyperplasia, PDT, Block #2, Mean” value [2] was 26.9%. For the same substance, the “Percent Lumen Compromised by Intimal Hyperplasia, Control-PDT, Block #1, Mean” value [3] was 16.7%, the “Percent Lumen Compromised by Intimal Hyperplasia, Control-PDT, Block #2, Mean” value [3] was 8.5% and the “PDT-treated fistula thrombosed (T)” value [4] was “T”. For the same substance, the “Percent Lumen Compromised by Intimal Hyperplasia, Control-PDT, Block #1” value [4] was −0.4% and 18.8% and 31.8%, the “Percent Lumen Compromised by Intimal Hyperplasia, Control-PDT, Block #2” value [4] was 17.6% and 14.5% and −6.6% and the “Medial Hyperplasia, PDT, Block#1” value [5] was 8.4 and 38.1 and 17.3. For the same substance, the “Medial Hyperplasia, PDT, Block#2” value [5] was 8.1 and 27.5 and 9.2, the “PDT treated fistulae patent by 3 months” value (0.15 mg/2 mL BPD-MA, 1 J/cm^2 OR lamp light over 40 min, 11 pigs, control 45%) was 27% and the “Relative reduction of intimal hyperplasia, block 1” value [6] was 46%. For the same substance, the “Relative reduction of intimal hyperplasia, block 2” value [6] was 27%, the “PDT effect on the media of the veins” value (after 3 months) was “little PDT effect” and the “IH in block of tissue immediately adjacent to the anastamosis” value (three animals with both fistulae patent, three months) was “marked decrease in IH”.
